Reference: US5618795A, “Dibekacin derivatives and arbekacin derivatives active against resistant bacteria, and the production thereof” (Zaidan Hojin Biseibutsu Kagaku Kenkyu Kai, priority 1992, dated 1997)
Converted amounts (≈) assume the structure as drawn. Read-outs that look alike come from different tables or passages of the source.

What was measured:
Bacillus subtilis PCI219 = assay: MIC by standard serial dilution method on Muller-Hinton's agar; type: cell-based; details: 18 hours
Description: (§1) Minimum growth inhibitory concentrations (MIC) of each of 2"-amino-2"-deoxyarbekacin (Compound Ia), 2"-amino-5,2"-dideoxyarbekacin (Compound Ib), 2"-amino-2"-deoxydibekacin (Compound IIa) and 2"-amino-5,2"-dideoxydibekacin (Compound IIb) against various bacteria (20 strains) and against clinically isolated strains of MRSA (50 strains) were determined by standard serial dilution method on Muller-Hinton's agar medium (as estimated after cultivating at 27° C. for 18 hours), and the test results obtained are shown in TABLE 3 and TABLE 4, respectively.
(§2) Minimum growth inhibitory concentrations (MIC) of each of 2"-amino-5,2"-dideoxy-5-epi-fluoroarbekacin (Compound XVIa) and 2"-amino-5,2"-dideoxy-5-epi-aminoarbekacin (Compound XVIb) against various bacteria (18 strains) and against clinically isolated strains of MRSA (50 strains) were determined by standard serial dilution method on Muller-Hinton's agar medium (as estimated after cultivation at 27° C. for 18 hours), and the test results obtained are shown in TABLE 5 and TABLE 6, respectively.

E. coli JR66/W677 = assay: as above; type: cell-based; details: Escherichia coli, JR66/W677, 18 h
Description: as §1, §2

E. coli K-12 LA290 R55 = assay: as above; type: cell-based; details: Escherichia coli, K12LA290R55, 18 h
Description: as §1, §2

E. coli K-12 ML1629 = assay: as above; type: cell-based; details: Escherichia coli
Description: as §1, §2

Escherichia coli NIHJ = assay: as above; type: cell-based; details: 18 hours
Description: as §1, §2

[1] = test system: Klebsiella pneumoniae PCI602; assay: as above; type: cell-based
Description: as §1, §2

P. aeruginosa H9 = assay: as above; type: cell-based; details: Pseudomonas aeruginosa
Description: as §1, §2

P. aeruginosa PST1 = assay: as above; type: cell-based; details: Pseudomonas aeruginosa, 18 hours
Description: as §1, §2

P. aeruginosa TI-13 = assay: as above; type: cell-based; details: Pseudomonas aeruginosa
Description: as §1, §2

Proteus vulgaris OX19 = assay: as above; type: cell-based
Description: as §1, §2

[2] = test system: Providencia rettgeri GN311; assay: as above; type: cell-based
Description: as §1, §2

[3] = test system: Pseudomonas aeruginosa A3; assay: as above; type: cell-based
Description: as §1, §2

S. aureus Smith = assay: as above; type: cell-based; details: Staphylococcus aureus, 27° C., 18 hours
Description: as §1, §2

S. epidermidis 109 = assay: as above; type: cell-based
Description: as §1, §2

Salmonella typhi T-63 = assay: as above; type: cell-based; details: Salmonella enterica, 18 hours
Description: as §1, §2

Serratia marcescens = assay: as above; type: cell-based
Description: as §1, §2

[4] = test system: Shigella dysenteriae JSI1910; assay: as above; type: cell-based; details: JSI1910, 18 h
Description: as §1, §2

[5] = test system: Staphylococcus aureus FDA209P; assay: as above; type: cell-based; details: 18 hours
Description: as §1, §2

[6] = test system: clinically isolated strains of MRSA; assay: Antibacterial MIC spectra against 50 clinically isolated strains of MRSA; type: cell-based, methicillin-resistant Staphylococcus aureus; details: Staphylococcus aureus; for MIC50: 50% of the 50 MRSA strains inhibited, read-out: MIC50; for MIC90: 90% of the 50 MRSA strains inhibited, read-out: MIC90; for MIC: read-out: Antibacterial MIC spectra
Description: as §1
Note:- MIC50 or MIC90 represents the concentration of tested
active compound at which 50% or 90% of the total numbers of the bacterial
strains tested were inhibited from their growth. DKB denotes dibekacin,
as §2

[7] = Acute toxicity, single intravenous administration to mice; type: in vivo; details: mouse, in vivo; single intravenous administration; mice (ICR-strain, 4 weeks old, female); observations for two weeks; read-out: LD50
Excerpt: 50% Lethal dosages (LD50, observations for two weeks) of the new compounds of this invention as estimated upon single intravenous administration to mice (ICR-strain, 4 weeks old, female) are as follows:
50% Lethal dosages (LD50, observations for two weeks) of the new compounds of general formula (XVI) according to the seventh aspect of this invention as estimated upon single intravenous administration to mice (ICR-strain, 4 weeks old, female) are as follows: […]

Solubility in water = type: physicochemical
B. cereus ATCC10702 = assay: MIC by standard serial dilution method on Muller-Hinton's agar; type: cell-based; details: Bacillus cereus, ATCC10702, 18 h
Description: as §1

E. coli K-12 ML1410 = assay: as above; type: cell-based; details: Escherichia coli, K12ML1410; Table 3; 27° C., 18 hours
Description: as §1

[8] = PCI602, Table 5, 27° C., 18 hours, read-out: MIC
[9] = TI13, Table 5, 27° C., 18 hours, read-out: MIC
[10] = OX19, Table 5, 27° C., 18 hours, read-out: MIC
[11] = GN311, Table 5, 27° C., 18 hours, read-out: MIC
[12] = A3, Table 5, 27° C., 18 hours, read-out: MIC
[13] = Staphylococcus epidermidis, 109, Table 5, 27° C., 18 hours, read-out: MIC
[14] = range over 50 clinically isolated strains of MRSA, 27° C., 18 hours

SMILES	MIC (Bacillus subtilis PCI219; Table 5, 27° C.) [µg/mL]	MIC (E. coli JR66/W677) [µg/mL]	MIC (E. coli K-12 LA290 R55) [µg/mL]	MIC (E. coli K-12 ML1629; K12ML1629, 18 h) [µg/mL]	MIC (Escherichia coli NIHJ; Table 5, 27° C.) [µg/mL]	MIC [1, 8] [µg/mL]	MIC (P. aeruginosa H9; H9, 18 h) [µg/mL]	MIC (P. aeruginosa PST1; Table 5, 27° C.) [µg/mL]	MIC (P. aeruginosa TI-13; [9]) [µg/mL]	MIC (Proteus vulgaris OX19; [10]) [µg/mL]	MIC [2, 11] [µg/mL]	MIC [3, 12] [µg/mL]	MIC (S. aureus Smith; Table 5) [µg/mL]	MIC (S. epidermidis 109; [13]) [µg/mL]	MIC (Salmonella typhi T-63; Table 5, 27° C.) [µg/mL]	MIC [4] [µg/mL]	MIC50 ([6]; 27° C., 18 hours) [µg/mL]	MIC90 ([6]; 27° C., 18 hours) [µg/mL]	LD50 at 336 h [7] [mg/kg]	Solubility (Solubility in water)	other results
NCC[C@H](O)C(=O)N[C@@H]1C[C@H](N)[C@@H](O[C@H]2O[C@H](CN)CC[C@H]2N)[C@@H](N)[C@H]1O[C@H]1O[C@H](CO)[C@@H](O)[C@H](N)[C@H]1N [Compound XVIb, 2"-amino-5,2"-dideoxy-5-epi-aminoarbekacin]	≤ 0.2	3.13 (≈ 5.68 µM)	1.56 (≈ 2.83 µM)	1.56 (≈ 2.83 µM)	0.78 (≈ 1.42 µM)	1.56 (≈ 2.83 µM)	3.13 (≈ 5.68 µM)	6.25 (≈ 11.4 µM)	1.56 (≈ 2.83 µM)	1.56 (≈ 2.83 µM)	1.56 (≈ 2.83 µM)	0.39 (≈ 0.708 µM)	≤ 0.2	0.39 (≈ 0.708 µM)	0.78 (≈ 1.42 µM)	3.13 (≈ 5.68 µM)	0.78 (≈ 1.42 µM)	1.56 (≈ 2.83 µM)	> 100	easily soluble in water	MIC (Serratia marcescens; 18 h): 3.13 µg/mL (≈ 5.68 µM); MIC ([5]; Table 5, 27° C.): ≤ 0.2 µg/mL; MIC [6, 14]: 0.39 to 1.56 µg/mL (≈ 0.708 to 2.83 µM)
NC[C@@H]1CC[C@@H](N)[C@@H](O[C@H]2[C@H](O)[C@@H](O[C@H]3O[C@H](CO)[C@@H](O)[C@H](N)[C@H]3N)[C@H](N)C[C@@H]2N)O1 [Compound IIa, 2"-Amino-2"-deoxydibekacin]	–	3.13 (≈ 6.95 µM)	1.56 (≈ 3.46 µM)	–	–	–	–	–	–	–	–	–	–	–	–	3.13 (≈ 6.95 µM)	6.25 (≈ 13.9 µM)	25 (≈ 55.5 µM)	> 100	easily soluble in water	MIC (Bacillus subtilis PCI219; Table 3, 27° C.): ≤ 0.2 µg/mL; MIC (E. coli K-12 ML1629; K12ML1629, Table 3, 27° C., 18 hours, read-out: MIC): 3.13 µg/mL (≈ 6.95 µM); MIC (Escherichia coli NIHJ; Table 3, 27° C.): 0.78 µg/mL (≈ 1.73 µM); MIC ([1]; PCI602, 18 h): 3.13 µg/mL (≈ 6.95 µM); MIC (P. aeruginosa H9; H9, Table 3, 27° C., 18 hours, read-out: MIC): 6.25 µg/mL (≈ 13.9 µM); MIC (P. aeruginosa PST1; Table 3, 27° C.): 50 µg/mL (≈ 111 µM); MIC (P. aeruginosa TI-13; TI13, 18 h): 3.13 µg/mL (≈ 6.95 µM); MIC (Proteus vulgaris OX19; OX19, 18 h): 1.56 µg/mL (≈ 3.46 µM); MIC ([2]; GN311, 18 h): 1.56 µg/mL (≈ 3.46 µM); MIC ([3]; A3, 18 h): 1.56 µg/mL (≈ 3.46 µM); MIC (S. aureus Smith; Table 3): 0.39 µg/mL (≈ 0.866 µM); MIC (S. epidermidis 109; Staphylococcus epidermidis, 109, 18 h): 1.56 µg/mL (≈ 3.46 µM); MIC (Salmonella typhi T-63; Table 3, 27° C.): 1.56 µg/mL (≈ 3.46 µM); MIC (Serratia marcescens; Table 3, 27° C., 18 hours, read-out: MIC): 12.5 µg/mL (≈ 27.7 µM); MIC ([5]; Table 3, 27° C.): 0.78 µg/mL (≈ 1.73 µM); MIC (B. cereus ATCC10702): 3.13 µg/mL (≈ 6.95 µM); MIC (E. coli K-12 ML1410): 1.56 µg/mL (≈ 3.46 µM); MIC [6, 14]: 0.2 to 50 µg/mL (≈ 0.444 to 111 µM)
NCC[C@H](O)C(=O)N[C@@H]1C[C@H](N)[C@@H](O[C@H]2O[C@H](CN)CC[C@H]2N)[C@@H](F)[C@H]1O[C@H]1O[C@H](CO)[C@@H](O)[C@H](N)[C@H]1N [Compound XVIa, 2"-Amino-5,2"-dideoxy-5-epi-fluoroarbekacin]	0.39 (≈ 0.704 µM)	3.13 (≈ 5.65 µM)	1.56 (≈ 2.82 µM)	3.13 (≈ 5.65 µM)	0.78 (≈ 1.41 µM)	1.56 (≈ 2.82 µM)	3.13 (≈ 5.65 µM)	12.5 (≈ 22.6 µM)	1.56 (≈ 2.82 µM)	1.56 (≈ 2.82 µM)	1.56 (≈ 2.82 µM)	0.78 (≈ 1.41 µM)	≤ 0.2	0.78 (≈ 1.41 µM)	0.78 (≈ 1.41 µM)	3.13 (≈ 5.65 µM)	0.78 (≈ 1.41 µM)	1.56 (≈ 2.82 µM)	> 100	easily soluble in water	MIC (Serratia marcescens; Table 5, 27° C., 18 hours, read-out: MIC): 1.56 µg/mL (≈ 2.82 µM); MIC ([5]; Table 5, 27° C.): 0.78 µg/mL (≈ 1.41 µM); MIC ([6]; MRSA, 18 h): 0.39 to 3.13 µg/mL (≈ 0.704 to 5.65 µM)
